According to patent US8653023B1, “Dual beneficial effect of dopamine enhancing and neuroprotective actions of PKC delta inhibitors for treatment of Parkinson's disease” (Iowa State University Research Foundation, Inc., priority 2006, dated 2014):
Where two headings read alike, the source gives them in different places.

Assays:
[1] = system: MPTP-treated C57 black mice; assay: TH protein level in SN of MPTP-treated mice (Western blot); type: in vivo; details: all doses of rottlerin, MPTP 30 mg/kg 5 days
Protocol: Six to 8-week-old […] mice weighing 30 g were housed in standard conditions: constant temperature (22±1° C.), humidity (relative, 30%) and a 12-h light/dark cycle, and were allowed free access to food and water. The animals and protocol procedures were approved and supervised by the Committee on Animal Care (COAC) at the Iowa State University. Rottlerin was dissolved in 1% dimethyl sulfoxide (DMSO) and was administered intraperitoneally at various doses. An equal volume of DMSO was given to controls. Rottlerin and DMSO administrations were started 24 h before the injections of the MPTP and continued for 5 days in the MPTP model. In the chronic regimens of MPTP administration, MPTP in phosphate-buffered saline (PBS) was injected intraperitoneally at doses of 30 mg/kg, once a day. Mice were sacrificed 2 days after the MPTP injections, and the striata were dissected for catecholamine analysis. […]
brain lysates containing equal amounts of protein were loaded in each lane and separated on a 10-12% SDS-PAGE gel as described previously (Kaul, Kanthasamy et al. 2003). […] Secondary antibody-bound proteins were detected using Amersham's ECL chemiluminescence kit. […] Western blot images were captured with a Kodak […] imaging system and data were analyzed using 1D Kodak imaging analysis software.

[2] = system: MPTP-treated C57 black mice; assay: TH+ neuron count in substantia nigra pars compacta of MPTP mice (stereology); type: in vivo
Protocol: Six to 8-week-old […] mice weighing 30 g were housed in standard conditions: constant temperature (22±1° C.), humidity (relative, 30%) and a 12-h light/dark cycle, and were allowed free access to food and water. The animals and protocol procedures were approved and supervised by the Committee on Animal Care (COAC) at the Iowa State University. Rottlerin was dissolved in 1% dimethyl sulfoxide (DMSO) and was administered intraperitoneally at various doses. An equal volume of DMSO was given to controls. Rottlerin and DMSO administrations were started 24 h before the injections of the MPTP and continued for 5 days in the MPTP model. In the chronic regimens of MPTP administration, MPTP in phosphate-buffered saline (PBS) was injected intraperitoneally at doses of 30 mg/kg, once a day. Mice were sacrificed 2 days after the MPTP injections, and the striata were dissected for catecholamine analysis. Additionally, rottlerin alone (0.3-20 mg/kg) was administered via intraperitoneally or orally and then brain tissues were subjected to neurochemical analyses (FIG. 8). The mesencephalons were fixed in 4% paraformaldehyde for 5 days for tyrosine hydroxylase (TH) immunostaining.
Brains removed following cervical dislocation were post-fixed in paraformaldehyde and used for TH immunolabelling and stereological studies. Fixed brains were cut into 30-μm sections and collected in cryoprotectant. Sections were rinsed in PBS at room temperature before immunostaining, then incubated with a anti-TH antibody as described (Thiruchelvam, McCormack et al. 2003; Thiruchelvam, Powers et al. 2004). The total number of TH^+ and TH Nissl-stained neurons in the SNpc were counted using the optical fractionator and previously described counting criteria (Thiruchelvam, McCormack et al. 2003; Thiruchelvam, Powers et al. 2004). After delineation of the region at low magnification (4× objective), every fourth section from the entire substantia nigra was sampled at higher magnification (100× objective) using StereoImager (Microbrightfield, Vt.).

3T3 cells = details: zinc deficient medium; cited from earlier work
SRC kinase = SRC kinase (Homo sapiens, UniProt P12931); details: cited from earlier work
Chain of SRC kinase (P12931 whole entry): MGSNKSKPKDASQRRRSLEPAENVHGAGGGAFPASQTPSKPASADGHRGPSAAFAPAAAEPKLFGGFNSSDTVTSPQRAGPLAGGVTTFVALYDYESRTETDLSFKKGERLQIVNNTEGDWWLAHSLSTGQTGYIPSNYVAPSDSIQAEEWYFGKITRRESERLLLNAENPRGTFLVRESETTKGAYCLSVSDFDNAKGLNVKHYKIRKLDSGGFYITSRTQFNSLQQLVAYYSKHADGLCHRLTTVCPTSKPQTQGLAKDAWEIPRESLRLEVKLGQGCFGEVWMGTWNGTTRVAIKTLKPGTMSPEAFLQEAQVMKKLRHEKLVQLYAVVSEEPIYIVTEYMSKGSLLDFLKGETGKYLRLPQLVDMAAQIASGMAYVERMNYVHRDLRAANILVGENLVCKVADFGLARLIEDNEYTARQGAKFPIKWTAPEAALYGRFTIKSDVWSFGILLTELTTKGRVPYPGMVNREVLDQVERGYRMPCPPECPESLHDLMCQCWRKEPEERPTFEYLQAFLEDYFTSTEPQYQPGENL

[3] = system: tyrosine hydroxylase (TH); assay: TH phosphorylation in N27 cells (Western blot, immunofluorescence); type: cell-based, rat; details: N27 cells
Protocol: PC12 cells, differentiated N27 dopaminergic cells and primary mesencephalic neurons were exposed to 1-10 μM rottlerin for the duration of the experiment. DMSO (0.01%) was used as vehicle control. PKCδ-DN- and Lac Z-expressing N27 cells were only treated with 0.01% DMSO. […] Untreated or vehicle treated cells were used as control samples.
Cell and brain lysates containing equal amounts of protein were loaded in each lane and separated on a 10-12% SDS-PAGE gel as described previously (Kaul et al., 2003). After the separation, proteins were transferred to nitrocellulose membrane, and nonspecific binding sites were blocked by treating with 5% nonfat dry milk powder. The membranes were then treated with primary antibodies directed against PKCδ (rabbit polyclonal or mouse monoclonal, 1:2000 dilution), TH (rabbit polyclonal or mouse monoclonal, 1:1000), phospho TH-ser40 (rabbit polyclonal, 1:1000), phospho TH-ser31 TH (rabbit polyclonal, 1:1000), or PP2A (mouse monoclonal, 1:1000). The primary antibody treatments were followed by treatment with secondary HRP-conjugated anti-rabbit or anti-mouse IgG (1:2000) for 1 hr at RT. Secondary antibody-bound proteins were detected using Amersham's ECL chemiluminescence kit. To confirm equal protein loading, blots were reprobed with a β-actin antibody (1:5000 dilution). Western blot images were captured with a Kodak 2000 MM imaging system and data were analyzed using 1D Kodak imaging analysis software.
Immunostaining of PKCδ, TH, Ser40 P-TH and Ser31 P-TH was performed in PC12, N27 and primary mesencephalic neurons. Cells were grown on poly-L-Lysine-coated glass cover slips. After treatment, the cells were fixed with 4% paraformaldehyde and processed for immunohistochemical staining. First, non-specific sites were blocked with 5% normal goat serum containing 0.4% BSA and 0.2% Triton-X 100 in PBS for 20 min. Cells were then incubated with antibodies directed against PKCδ (1:500 dilution), TH (1:500 dilution), and P-THSer40 (1:500 dilution) overnight at 4° C. followed by incubation with either Alexa 488-conjugated (green, 1:1000) or Cy3-conjugated (red, 1:1000) secondary antibody for 1 hr at RT. Secondary antibody treatments were followed by incubation with Hoechst 33342 (10 μg/ml) for 3 min at room temperature to stain the nucleus. Then the coverslips containing stained cells were washed with PBS, mounted on a slide, and viewed under a Nikon inverted fluorescence microscope (Model TE-2000U); images were captured with a SPOT digital camera (Diagnostic Instruments, Sterling Heights, Mich.).

macrophages = details: pretreatment, cited from earlier work
PKCδ = PKCδ (Homo sapiens, UniProt Q05655); details: cited from earlier work
Chain of PKCδ (Q05655 whole entry): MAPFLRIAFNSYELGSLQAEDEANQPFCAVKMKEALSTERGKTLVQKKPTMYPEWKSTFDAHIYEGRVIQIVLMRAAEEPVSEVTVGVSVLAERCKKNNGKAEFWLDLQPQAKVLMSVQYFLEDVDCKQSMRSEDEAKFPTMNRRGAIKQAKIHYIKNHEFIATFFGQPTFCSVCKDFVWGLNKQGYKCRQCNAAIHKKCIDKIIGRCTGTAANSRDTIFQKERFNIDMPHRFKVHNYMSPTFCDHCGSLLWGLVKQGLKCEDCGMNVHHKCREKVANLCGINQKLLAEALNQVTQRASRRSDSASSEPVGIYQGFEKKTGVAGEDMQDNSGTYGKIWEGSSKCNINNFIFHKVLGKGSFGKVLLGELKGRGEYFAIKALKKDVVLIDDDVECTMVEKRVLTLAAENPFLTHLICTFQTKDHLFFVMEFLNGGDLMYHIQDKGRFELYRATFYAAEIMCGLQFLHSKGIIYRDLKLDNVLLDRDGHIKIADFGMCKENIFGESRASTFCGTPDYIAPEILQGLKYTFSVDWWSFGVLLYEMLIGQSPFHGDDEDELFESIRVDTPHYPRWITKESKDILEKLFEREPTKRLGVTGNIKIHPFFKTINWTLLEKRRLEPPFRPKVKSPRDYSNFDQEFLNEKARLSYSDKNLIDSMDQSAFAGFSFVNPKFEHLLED

casein kinase II = details: cited from earlier work
PP2A = PP2A phosphatase activity in N27 cells (Serine/Threonine phosphatase assay kit); type: cell-based, rat; details: rottlerin vs DMSO, PKCδ-DN vs LacZ
Protocol: To determine PP2A phosphatase activity, we used the Serine/Threonine phosphatase assay kit from Promega. Briefly, N27 cells and substantia nigral tissue from mouse brain were homogenized in lysis buffer (25 mM Tris-HCl, 10 mM β-mercaptoethanol, 2 mM EDTA, protease inhibitor) supplied with the kit. After centrifugation, the supernatants were used for the assay. PP2A activity was determined by measuring the amount of free phosphate generated in a reaction by measuring the absorbance of a molybdate:malachite green: phosphate complex at 600 nm using the Spectramax plate reader (Molecular Devices). The effective range for the detection of phosphate released in this assay is 100-4,000 pmol of phosphate.

Akt = details: cited from earlier work

## CC(=O)c1c(O)c(C)c(O)c(Cc2c(O)c3c(c(C(=O)/C=C/c4ccccc4)c2O)OC(C)(C)C=C3)c1O [rottlerin]
[1]
  TH protein level in SN: attenuate loss of TH protein
[2]; cotreatment with 20 mg/kg rottlerin
  protective effect against SNpc cell loss: 37%
[2]; cotreatment with 20 mg/kg rottlerin and MPTP 30 mg/kg
  cell loss in SNpc: 13%
3T3 cells
  cell number: restored
  proteolysis of PKC-delta, activated caspase-3: reduced or eliminated
SRC kinase
  inhibition: inactive
[3]
  level of total TH: unaltered
macrophages; 1 μM
  suppression of UV-B-induced DNA fragmentation: approximately 30%
macrophages; 10 μM
  suppression of UV-B-induced DNA fragmentation: ~50%
PKCδ
  IC50: 3 to 6 µM
Casein kinase II
  inhibition: weak inhibitor
PP2A
  reduction of PP2A activity: 31%
Akt
  TPA-induced dephosphorylation of Akt: inhibited
